Measured values taken from patent US10081628B2, “Apoptosis-inducing agents for the treatment of cancer and immune and autoimmune diseases” (AbbVie Inc., priority 2013, dated 2018).
Like-named read-outs stand apart in the source and are kept apart here.

Assays:
RS4;11 cells = experiment: RS4;11 cell viability assay (CellTiter Glo); assay type: cell-based; conditions: 10% human serum, 48 hours
Description: The acute lymphoblastic leukemia (ALL) cell line RS4;11 was used as the primary human cell line to assess the cellular activity of Bcl-2 selective agents in vitro and their efficacy in vivo. Previous studies have shown by BH3 profiling, a mitochondrial assay that classifies blocks in the intrinsic apoptotic pathway, that RS4;11 cells were highly dependant on BCL-2 for survival and sensitive to the Bcl-2 family member inhibitor ABT-737 (Blood, 2008, Vol. 111, 2300-2309).
RS4;11 cells were cultured in RPMI-1640 supplemented with 2 mM L-glutamine, 10% FBS, 1 mM sodium pyruvate, 2 mM HEPES, 1% penicillin/streptomycin (Invitrogen), 4.5 g/L glucose and maintained at 37 C containing 5% CO2. To test for the cellular activity of compounds in vitro, cells were treated at 50,000 cells per well in 96-well microtiter plates in the presence of 10% human serum for 48 hours in a humidified chamber with 5% CO2. Cell cytotoxicity EC50 values were assessed using CellTiter Glo (Promega) according to the manufacturer's recommendations. The EC50 values were determined as a percentage of viable cells following treatment compared to the untreated control cells.

lymphocytes = experiment: Lymphocyte reduction in C57BL/6 mice; assay type: in vivo; conditions: Mus musculus, ip
Procedure: An experiment was performed to evaluate the effect of Bcl-2 selective/Bcl-xL sparing compounds on immune cells and platelets, as evaluated in C57Bl/6 mice. Mice were treated four days with compounds (doses of 30 mg/kg, administered by intraperitoneal injection every day) and cell numbers were measured with a Cell Dyn hematology analyzer 24 hours after the first and last doses. Exposure of the compound (area under the curve) was calculated by using time points of 1, 6, 10 and 24 hours after the last dose.

GST-Bcl-2 = GST-Bcl-2 (Homo sapiens, UniProt P10415); experiment: TR-FRET Bcl-2 binding assay (F-Bak peptide probe); conditions: GST-Bcl-2 1 nM, F-Bak peptide probe 100 nM, Tb-anti-GST 1 nM; Wang's equation; '<' = below limit of detection
Procedure: Determination of the utility of compounds of this invention as binders to and inhibitors of anti-apoptotic Bcl-2 proteins was performed using the Time Resolved-Fluorescence Resonance Energy Transfer (TR-FRET) Assay. Tb-anti-GST antibody was purchased from Invitrogen (Catalog No. PV4216).
Representative compounds were serially diluted in dimethyl sulfoxide (DMSO) starting at 50 μM (2× starting concentration; 10% DMSO) and 10 μL were transferred into a 384-well plate. The samples are then mixed on a shaker for 1 minute and incubated for an additional 3 hours at room temperature. For each assay, the probe/antibody and protein/probe/antibody were included on each assay plate as negative and positive controls, respectively. Fluorescence was measured on the Envision (Perkin Elmer) using a 340/35 nm excitation filter and 520/525 (F-Bak peptide) and 495/510 nm (Tb-labeled […] antibody) emission filters. Dissociation constants (Ki) are shown in TABLE 2 below and were determined using Wang's equation (Wang Z.-X., An Exact Mathematical Expression For Describing Competitive Binding Of Two Different Ligands To A Protein Molecule. FEBS Lett. 1995, 360:111-4).
The samples were then mixed on a shaker for 1 minute and incubated for an additional 3 hours at room temperature. For each assay, the probe/antibody and protein/probe/antibody were included on each assay plate as negative and positive controls, respectively. Fluorescence was measured on the Envision (Perkin Elmer) using a 340/35 nm excitation filter and 520/525 (F-Bak peptide) and 495/510 nm (Tb-labeled anti-Histidine antibody) emission filters.
Inhibition constants (Ki) for compounds were determined using Wang's equation (Wang Zx. An Exact Mathematical Expression For Describing Competitive Binding Of Two Different Ligands To A Protein Molecule. FEBS Lett. 1995, 360:111-4).
The inhibition constant (Ki) is the dissociation constant of an enzyme-inhibitor complex or a protein/small molecule complex, wherein the small molecule is inhibiting binding of one protein to another protein or peptide. So a large Ki value indicates a low binding affinity and a small Ki value indicates a high binding affinity. […] The compounds are therefore expected to have utility in treatment of diseases during which anti-apoptotic Bcl-2 protein is expressed. Biological Data

[1] = 30 mg/kg intraperitoneal every day for four days, 24 hours after the last dose, read-out: Lymphocyte reduction % inh. day 4
[2] = 30 mg/kg intraperitoneal every day, 24 hours after the first dose, read-out: Lymphocyte reduction % inh. day 1

GST-Bcl-2, sequence (P10415 whole entry): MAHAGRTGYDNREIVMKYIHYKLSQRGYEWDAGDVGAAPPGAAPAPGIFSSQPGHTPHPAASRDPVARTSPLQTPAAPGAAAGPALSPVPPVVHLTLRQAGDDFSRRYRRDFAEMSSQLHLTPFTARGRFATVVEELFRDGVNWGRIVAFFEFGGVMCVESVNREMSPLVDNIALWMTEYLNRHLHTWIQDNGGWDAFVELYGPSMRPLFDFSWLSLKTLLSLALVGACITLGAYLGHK

SMILES	EC50 (RS4;11 cells) [nM]	inhibition at 30 mg/kg (lymphocytes; [1]) [%]	inhibition at 30 mg/kg (lymphocytes; [2]) [%]	Ki (GST-Bcl-2) [nM]
C[C@H](Nc1ccc(S(=O)(=O)NC(=O)c2ccc(N3CCN(CC4=C(c5ccc(Cl)cc5)CC(C)(C)CC4)CC3)cc2Oc2cnc3[nH]ccc3c2)cc1[N+](=O)[O-])C1CCOCC1 [Example 2, 4-(4-{[2-(4-chlorophenyl)-4,4-dimethylcyclohex-1-en-1-yl]methyl}piperazin-1-yl)-N-[(3-nitro-4-{[(1S)-1-(tetrahydro-2H-pyran-4-yl)ethyl]amino}phenyl)sulfonyl]-2-(1H-pyrrolo[2,3-b]pyridin-5-yloxy)benzamide]	160	< 15	< 15	–
CC1(C)CCC(CN2CCN(c3ccc(C(=O)NS(=O)(=O)c4ccc(NC[C@H]5CC[C@]6(CCCO6)CC5)c([N+](=O)[O-])c4)c(Oc4cnc5[nH]ccc5c4)c3)CC2)=C(c2ccc(Cl)cc2)C1 [Example 4, 4-(4-{[2-(4-chlorophenyl)-4,4-dimethylcyclohex-1-en-1-yl]methyl}piperazin-1-yl)-N-[(3-nitro-4-{[(5S,8S)-1-oxaspiro[4.5]dec-8-ylmethyl]amino}phenyl)sulfonyl]-2-(1H-pyrrolo[2,3-b]pyridin-5-yloxy)benzamide]	57	–	–	< 0.1
CC1(C)CCC(CN2CCN(c3ccc(C(=O)NS(=O)(=O)c4ccc(NCC5CCC6(CC5)OCCO6)c([N+](=O)[O-])c4)c(Oc4cnc5[nH]ccc5c4)c3)CC2)=C(c2ccc(Cl)cc2)C1 [Example 7, 4-(4-{[2-(4-chlorophenyl)-4,4-dimethylcyclohex-1-en-1-yl]methyl}piperazin-1-yl)-N-({4-[(1,4-dioxaspiro[4.5]dec-8-ylmethyl)amino]-3-nitrophenyl}sulfonyl)-2-(1H-pyrrolo[2,3-b]pyridin-5-yloxy)benzamide]	6.8	55	64	–
CC1(C)CCC(CN2CCN(c3ccc(C(=O)NS(=O)(=O)c4ccc(N5CCOCC5)c([N+](=O)[O-])c4)c(Oc4cnc5[nH]ccc5c4)c3)CC2)=C(c2ccc(Cl)cc2)C1 [Example 8, 4-(4-{[2-(4-chlorophenyl)-4,4-dimethylcyclohex-1-en-1-yl]methyl}piperazin-1-yl)-N-{[4-(morpholin-4-yl)-3-nitrophenyl]sulfonyl}-2-(1H-pyrrolo[2,3-b]pyridin-5-yloxy)benzamide]	> 1000	–	–	0.7
CC1(C)CCC(CN2CCN(c3ccc(C(=O)NS(=O)(=O)c4ccc(NC56CC7CC(CC(O)(C7)C5)C6)c([N+](=O)[O-])c4)c(Oc4cnc5[nH]ccc5c4)c3)CC2)=C(c2ccc(Cl)cc2)C1 [Example 13, 4-(4-{[2-(4-chlorophenyl)-4,4-dimethylcyclohex-1-en-1-yl]methyl}piperazin-1-yl)-N-({4-[(3-hydroxytricyclo[3.3.1.1^3,7]dec-1-yl)amino]-3-nitrophenyl}sulfonyl)-2-(1H-pyrrolo[2,3-b]pyridin-5-yloxy)benzamide]	130	–	–	–
COC(=O)C1(CNc2ccc(S(=O)(=O)NC(=O)c3ccc(N4CCN(CC5=C(c6ccc(Cl)cc6)CC(C)(C)CC5)CC4)cc3Oc3cnc4[nH]ccc4c3)cc2[N+](=O)[O-])CCOCC1 [Example 17, methyl 4-{[(4-{[4-(4-{[2-(4-chlorophenyl)-4,4-dimethylcyclohex-1-en-1-yl]methyl}piperazin-1-yl)-2-(1H-pyrrolo[2,3-b]pyridin-5-yloxy)benzoyl]sulfamoyl}-2-nitrophenyl)amino]methyl}tetrahydro-2H-pyran-4-carboxylate]	85	–	–	–
CC1(C)CCC(CN2CCN(c3ccc(C(=O)NS(=O)(=O)c4ccc(NC[C@@H]5CCCOCC5)c([N+](=O)[O-])c4)c(Oc4cnc5[nH]ccc5c4)c3)CC2)=C(c2ccc(Cl)cc2)C1 [Example 19, 4-(4-{[2-(4-chlorophenyl)-4,4-dimethylcyclohex-1-en-1-yl]methyl}piperazin-1-yl)-N-[(3-nitro-4-{[(4R)-oxepan-4-ylmethyl]amino}phenyl)sulfonyl]-2-(1H-pyrrolo[2,3-b]pyridin-5-yloxy)benzamide]	14	45	49	–
CC1(C)CCC(CN2CCN(c3ccc(C(=O)NS(=O)(=O)c4ccc(NCC5(F)COCCOC5)c([N+](=O)[O-])c4)c(Oc4cnc5[nH]ccc5c4)c3)CC2)=C(c2ccc(Cl)cc2)C1 [Example 39, 4-(4-{[2-(4-chlorophenyl)-4,4-dimethylcyclohex-1-en-1-yl]methyl}piperazin-1-yl)-N-[(4-{[(6-fluoro-1,4-dioxepan-6-yl)methyl]amino}-3-nitrophenyl)sulfonyl]-2-(1H-pyrrolo[2,3-b]pyridin-5-yloxy)benzamide]	40	–	–	–
CC1(C)CCC(CN2CCN(c3ccc(C(=O)NS(=O)(=O)c4ccc(NCC5CCOCC5)c([N+](=O)[O-])c4)c(Oc4cnc5[nH]ccc5c4)c3)CC2)=C(c2ccc(Cl)cc2F)C1 [Example 48, 4-(4-{[2-(4-chloro-2-fluorophenyl)-4,4-dimethylcyclohex-1-en-1-yl]methyl}piperazin-1-yl)-N-({3-nitro-4-[(tetrahydro-2H-pyran-4-ylmethyl)amino]phenyl}sulfonyl)-2-(1H-pyrrolo[2,3-b]pyridin-5-yloxy)benzamide]	3.3	78	76	–
CC1(C)CCC(CN2CCN(c3ccc(C(=O)NS(=O)(=O)c4ccc(NCC5CCOCC5)c([N+](=O)[O-])c4)c(Oc4cnc5[nH]ccc5c4)c3)CC2)=C(c2ccc(Cl)c(F)c2)C1 [Example 49, 4-(4-{[2-(4-chloro-3-fluorophenyl)-4,4-dimethylcyclohex-1-en-1-yl]methyl}piperazin-1-yl)-N-({3-nitro-4-[(tetrahydro-2H-pyran-4-ylmethyl)amino]phenyl}sulfonyl)-2-(1H-pyrrolo[2,3-b]pyridin-5-yloxy)benzamide]	46	–	–	–
CCC1(CNc2ccc(S(=O)(=O)NC(=O)c3ccc(N4CCN(CC5=C(c6ccc(Cl)cc6)CC(C)(C)CC5)CC4)cc3Oc3cnc4[nH]ccc4c3)cc2[N+](=O)[O-])CCOCC1 [Example 50, 4-(4-{[2-(4-chlorophenyl)-4,4-dimethylcyclohex-1-en-1-yl]methyl}piperazin-1-yl)-N-[(4-{[(4-ethyltetrahydro-2H-pyran-4-yl)methyl]amino}-3-nitrophenyl)sulfonyl]-2-(1H-pyrrolo[2,3-b]pyridin-5-yloxy)benzamide]	52	–	–	–
CC1(C)CCC(CN2CCN(c3ccc(C(=O)NS(=O)(=O)c4ccc(NCC5CCOCC5)c([N+](=O)[O-])c4)c(Oc4cnc5[nH]ccc5c4)c3)CC2)=C(c2ccc(C3CC3)cc2)C1 [Example 52, 4-(4-{[2-(4-cyclopropylphenyl)-4,4-dimethylcyclohex-1-en-1-yl]methyl}piperazin-1-yl)-N-({3-nitro-4-[(tetrahydro-2H-pyran-4-ylmethyl)amino]phenyl}sulfonyl)-2-(1H-pyrrolo[2,3-b]pyridin-5-yloxy)benzamide]	16	51	54	–
CC1(C)CCC(CN2CCN(c3ccc(C(=O)NS(=O)(=O)c4ccc(NCC5CCOCC5)c([N+](=O)[O-])c4)c(Oc4cnc5[nH]ccc5c4)c3)CC2)=C(c2ccc(C(F)F)cc2)C1 [Example 54, 4-[4-({2-[4-(difluoromethyl)phenyl]-4,4-dimethylcyclohex-1-en-1-yl}methyl)piperazin-1-yl]-N-({3-nitro-4-[(tetrahydro-2H-pyran-4-ylmethyl)amino]phenyl}sulfonyl)-2-(1H-pyrrolo[2,3-b]pyridin-5-yloxy)benzamide]	9.9	–	–	–
